Results from patent US20250122225A1, “MASP-2 INHIBITORS AND METHODS OF USE” (Omeros Corporation, priority 2023, published 2025).
Structures can show the parent of a compound that is named as a salt.

Tests used:
[1] = biological target: T1, human α-thrombin (Homo sapiens, UniProt P00734); assay: Enzymatic assay for thrombin (fluorogenic peptide substrate Boc-VPR-AMC); assay type: biochemical
T1 construct: enzyme (human α-thrombin (BioPharm® Lab.)) in assay buffer; purchased BioPharm® Lab
In short: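 Assay conditions kept the reaction linear in time, enzyme and substrate, so IC50 approximated Ki apart from tight- or slow-binding cases. Boc-VPR-AMC cleavage by human α-thrombin proceeded 20 min at room temperature in Hepes pH 7.4/NaCl/Tween 20 buffer, then was acid-quenched and read by fluorescence.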

[2] = biological target: T2, MASP-2 (CCP1-CCP2-SP) (Homo sapiens, UniProt O00187); assay: Enzymatic assay for MASP-2 inhibitory activity (fluorogenic substrate); assay type: biochemical
T2 construct: 15 μL of Enzyme MASP-2 (CCP1-CCP2-SP) in Assay Buffer
In short: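 Fluorescence was normalized between no-enzyme and DMSO-only controls to derive % activity, with IC50 taken as equivalent to Ki except for tight-binding inhibitors. Reactions ran 20 min at room temperature in HEPES pH 7.4/NaCl/Tween 20 buffer, using the C2-derived fluorogenic substrate, before acetic acid stop.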

T2 sequence (O00187 445-686 limits assumed): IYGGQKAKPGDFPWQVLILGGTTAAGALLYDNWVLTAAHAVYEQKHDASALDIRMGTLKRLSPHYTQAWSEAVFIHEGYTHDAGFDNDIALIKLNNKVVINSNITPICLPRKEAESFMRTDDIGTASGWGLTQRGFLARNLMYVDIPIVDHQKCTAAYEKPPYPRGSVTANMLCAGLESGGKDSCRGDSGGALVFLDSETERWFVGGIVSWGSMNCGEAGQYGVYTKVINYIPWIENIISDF
T2 sequence (O00187 287-444 partner limits assumed): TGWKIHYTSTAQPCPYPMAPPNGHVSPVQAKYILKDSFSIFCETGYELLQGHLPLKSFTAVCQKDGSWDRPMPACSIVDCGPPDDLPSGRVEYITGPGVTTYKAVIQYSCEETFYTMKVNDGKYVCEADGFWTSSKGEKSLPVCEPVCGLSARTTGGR

Row | Ki [1] [nM] | Ki [2] [nM] | SMILES
1 | 500 to 2500 | < 500 | O=C(NCc1cc2cnccc2[nH]1)[C@@H]1CCc2cnc(NCc3cc(F)cc(F)c3)c(=O)n21 [Compound 54, (S)-N-((1H-pyrrolo[3,2-c]pyridin-2-yl)methyl)-3-((3,5-difluorobenzyl)amino)-4-oxo-4,6,7,8-tetrahydropyrrolo[1,2-a]pyrazine-6-carboxamide]
2 | 2500 to 10000 | < 500 | Cc1cccc(CNc2nc(Cl)c3n(c2=O)[C@H](C(=O)NCc2cc4cnccc4[nH]2)CC3)c1 [Compound 114, (S)-N-((1H-pyrrolo[3,2-c]pyridin-2-yl)methyl)-1-chloro-3-((3-methylbenzyl)amino)-4-oxo-4,6,7,8-tetrahydropyrrolo[1,2-a]pyrazine-6-carboxamide trifluoroacetate]
3 | 2500 to 10000 | < 500 | Cc1cccc(C2(Nc3ncc4n(c3=O)[C@H](C(=O)NCc3cc5cnccc5[nH]3)CC4)CC2)c1 [Compound 111, (S)—N-((1H-pyrrolo[3,2-c]pyridin-2-yl)methyl)-4-oxo-3-((1-(m-tolyl)cyclopropyl)amino)-4,6,7,8-tetrahydropyrrolo[1,2-a]pyrazine-6-carboxamide trifluoroacetate]
4 | 2500 to 10000 | < 500 | O=C(NCc1cc2cnccc2[nH]1)[C@@H]1CCc2c(Cl)nc(NC3(c4ccccc4)CC3)c(=O)n21 [Compound 106, (S)-N-((1H-pyrrolo[3,2-c]pyridin-2-yl)methyl)-1-chloro-4-oxo-3-((1-phenylcyclopropyl)amino)-4,6,7,8-tetrahydropyrrolo[1,2-a]pyrazine-6-carboxamide]
5 | 500 to 2500 | < 500 | O=C(NCc1cc2c(s1)CNC2)[C@@H]1CCc2cnc(N[C@@H]3CCc4ccccc43)c(=O)n21 [Compound 254, (S)-3-(((R)-2,3-dihydro-1H-inden-1-yl)amino)-N-((5,6-dihydro-4H-thieno[2,3-c]pyrrol-2-yl)methyl)-4-oxo-4,6,7,8-tetrahydropyrrolo[1,2-a]pyrazine-6-carboxamide]
6 | 10000 to 25000 | < 500 | O=C(NCc1cc2cnccc2[nH]1)[C@@H]1CCc2c(Cl)nc(NCc3cccc(C(F)F)c3)c(=O)n21 [Compound 17, (S)-N-((1H-pyrrolo[3,2-c]pyridin-2-yl)methyl)-1-chloro-3-((3-(difluoromethyl)benzyl)amino)-4-oxo-4,6,7,8-tetrahydropyrrolo[1,2-a]pyrazine-6-carboxamide]
7 | 500 to 2500 | < 500 | O=C(NCc1cc2cnccc2[nH]1)[C@@H]1CCc2cnc(NCC3CCc4ccccc4C3)c(=O)n21 (stereo partly shown) [Compound 148]
8 | < 500 | < 500 | CCc1cccc(CNc2ncc3n(c2=O)[C@H](C(=O)NCc2cc4cnccc4[nH]2)CC3)c1 [Compound 45, (S)-N-((1H-pyrrolo[3,2-c]pyridin-2-yl)methyl)-3-((3-ethylbenzyl)amino)-4-oxo-4,6,7,8-tetrahydropyrrolo[1,2-a]pyrazine-6-carboxamide]
9 | 2500 to 10000 | < 500 | C[C@@H]1C[C@@H](C(=O)NCc2cc3cnccc3[nH]2)n2c1cnc(NCc1ccccc1)c2=O [Compound 227, trifluoroacetate]

The next lines start with the molecule.

Row | SMILES | Ki [1] [nM] | Ki [2] [nM]
10 | C[C@@H](NC(=O)[C@@H]1CCc2cnc(N[C@@H](c3ccccc3)C(C)(C)C)c(=O)n21)c1cc2c(s1)CNC2 [Compound 269, (S)-N-((R)-1-(5,6-dihydro-4H-thieno[2,3-c]pyrrol-2-yl)ethyl)-3-(((R)-2,2-dimethyl-1-phenylpropyl)amino)-4-oxo-4,6,7,8-tetrahydropyrrolo[1,2-a]pyrazine-6-carboxamide trifluoroacetate] | 2500 to 10000 | < 500
11 | Cc1cc(C)cc(CNc2ncc3n(c2=O)[C@H](C(=O)NCc2ccc(N)nc2C)CC3)c1 [Compound 36, (S)—N-((6-amino-2-methylpyridin-3-yl)methyl)-3-((3,5-dimethylbenzyl)amino)-4-oxo-4,6,7,8-tetrahydropyrrolo[1,2-a]pyrazine-6-carboxamide] | < 500 | < 500
12 | Cc1cccc(CNc2ncc3n(c2=O)[C@H](C(=O)NCc2ccc(N)nc2C)CC3)c1C [Compound 60, (S)-N-((6-amino-2-methylpyridin-3-yl)methyl)-3-((2,3-dimethylbenzyl)amino)-4-oxo-4,6,7,8-tetrahydropyrrolo[1,2-a]pyrazine-6-carboxamide] | < 500 | < 500
13 | Cc1cc(F)cc(CNc2nc(C3CCCCC3)c3n(c2=O)[C@H](C(=O)NCc2cc4cnccc4[nH]2)CC3)c1 [Compound 177, trifluoroacetate] | > 25000 | < 500
14 | Cc1nc(N)ccc1CNC(=O)C1CCc2c(Cl)nc(NCc3cncnc3)c(=O)n21 (stereo not shown) [Compound 150] | 2500 to 10000 | < 500
15 | Cc1cc(F)cc(CNc2nc(-c3cnn(C)c3)c3n(c2=O)[C@H](C(=O)NCc2ccc(N)nc2C)CC3)c1 [Compound 174, (S)—N-((6-amino-2-methylpyridin-3-yl)methyl)-3-((3-fluoro-5-methylbenzyl)amino)-1-(1-methyl-1H-pyrazol-4-yl)-4-oxo-4,6,7,8-tetrahydropyrrolo[1,2-a]pyrazine-6-carboxamide trifluoroacetate] | > 25000 | < 500
16 | O=C(NCc1cc2c(s1)CNC2)[C@@H]1CCc2cnc(N[C@@H](c3ccccc3)C3CCC3)c(=O)n21 [Compound 256] | < 500 | < 500
17 | Cc1cc(F)cc(CNc2ncc3n(c2=O)[C@H](C(=O)NCc2cnc(N)c(Cl)c2)CC3)c1 [Compound 192, (S)-N-((6-amino-5-chloropyridin-3-yl)methyl)-3-((3-fluoro-5-methylbenzyl)amino)-4-oxo-4,6,7,8-tetrahydropyrrolo[1,2-a]pyrazine-6-carboxamide trifluoroacetate] | 500 to 2500 | < 500
18 | Cc1nc(N)ccc1CNC(=O)[C@@H]1CCc2c(Cl)nc(NCc3cccc(CO)c3)c(=O)n21 [Compound 5, (S)-N-((6-amino-2-methylpyridin-3-yl)methyl)-1-chloro-3-((3-(hydroxymethyl)benzyl)amino)-4-oxo-4,6,7,8-tetrahydropyrrolo[1,2-a]pyrazine-6-carboxamide] | 500 to 2500 | < 500
19 | CC[C@@H](Nc1ncc2n(c1=O)[C@H](C(=O)NCc1cc3c(s1)CNC3)CC2)c1cccc(-c2ccccc2)c1 [Compound 267, (S)-3-(((R)-1-([1,1'-biphenyl]-3-yl)propyl)amino)-N-((5,6-dihydro-4H-thieno[2,3-c]pyrrol-2-yl)methyl)-4-oxo-4,6,7,8-tetrahydropyrrolo[1,2-a]pyrazine-6-carboxamide trifluoroacetate] | 500 to 2500 | < 500
20 | Cc1nc(N)ccc1CNC(=O)[C@@H]1CCc2cnc(NCc3cccc(CO)c3)c(=O)n21 [Compound 47, (S)-N-((6-amino-2-methylpyridin-3-yl)methyl)-3-((3-(hydroxymethyl)benzyl)amino)-4-oxo-4,6,7,8-tetrahydropyrrolo[1,2-a]pyrazine-6-carboxamide] | < 500 | < 500
21 | O=C(NCc1cc(Cl)ccc1-n1cnnn1)[C@@H]1CCc2c(Cl)nc(NCc3ccccc3)c(=O)n21 [Compound 107, (S)-3-(benzylamino)-1-chloro-N-(5-chloro-2-(1H-tetrazol-1-yl)benzyl)-4-oxo-4,6,7,8-tetrahydropyrrolo[1,2-a]pyrazine-6-carboxamide] | < 500 | 500 to 2500
22 | CC[C@H]1C[C@@H](C(=O)NCc2ccc(N)nc2C)n2c1cnc(NCc1cc(C)cc(C)c1)c2=O [Compound 156, (6S,8S)-N-((6-amino-2-methylpyridin-3-yl)methyl)-3-((3,5-dimethylbenzyl)amino)-8-ethyl-4-oxo-4,6,7,8-tetrahydropyrrolo[1,2-a]pyrazine-6-carboxamide] | < 500 | < 500
23 | Cc1nc(N)ccc1CNC(=O)[C@@H]1CCc2cnc(NCc3cnn(-c4ccccc4)c3)c(=O)n21 [Compound 166, (S)—N-((6-amino-2-methylpyridin-3-yl)methyl)-4-oxo-3-(((1-phenyl-1h-pyrazol-4-yl)methyl)amino)-4,6,7,8-tetrahydropyrrolo[1,2-a]pyrazine-6-carboxamide trifluoroacetate] | 500 to 2500 | < 500
24 | Cc1ccc(F)cc1CNc1ncc2n(c1=O)[C@H](C(=O)NCc1ccc(N)nc1C)CC2 [Compound 65, (S)-N-((6-amino-2-methylpyridin-3-yl)methyl)-3-((5-fluoro-2-methylbenzyl)amino)-4-oxo-4,6,7,8-tetrahydropyrrolo[1,2-a]pyrazine-6-carboxamide] | < 500 | < 500
25 | Cc1nc(N)ccc1CNC(=O)[C@@H]1CCc2cnc(NCc3ccccc3)c(=O)n21 [Compound 104, (S)-N-((6-amino-2-methylpyridin-3-yl)methyl)-3-(benzylamino)-4-oxo-4,6,7,8-tetrahydropyrrolo[1,2-a]pyrazine-6-carboxamide] | < 500 | < 500
26 | Cc1cc(C)cc(CNc2ncc3n(c2=O)[C@H](C(=O)NC(C)c2cc4cnccc4[nH]2)CC3)c1 (stereo partly drawn) [Compound 43, (6S)-N-(1-(1H-pyrrolo[3,2-c]pyridin-2-yl)ethyl)-3-((3,5-dimethylbenzyl)amino)-4-oxo-4,6,7,8-tetrahydropyrrolo[1,2-a]pyrazine-6-carboxamide trifluoroacetate] | > 25000 | < 500
